Results on one molecule are retold here after patent US20160061841A1, “NRF2-BASED CANCER TREATMENT AND DETECTION METHODS AND USES” (CanBas Co., Ltd., priority 2014, published 2016).

SMILES strings stand for the structures. Entries after “also recorded” stand apart in the source; their conditions may differ. Where two headings read alike, the source gives them in different places.

Assay [1] relates to Nrf2. As to conditions: Western blot. For orientation: Immunoblotting shows a protein as a band on a membrane.
Assay [2] deals with H1703 Control (Ctrl)-sh and Nrf2-sh sub-lines. In words: Cell cycle distribution after SFN, CDDP and CBP501 in H1703 Ctrl-sh and Nrf2-sh sub-lines. Type of assay: cell-based, Human. As to conditions: SFN 24 h prior to 1 h CDDP (2.5 μg/ml)/CBP501 (1 μM). As for the experimental part:
FIGS. 4C, 4D show Analysis of cell cycle distribution changes by using Flow-cytometry (n=4). SFN was subjected 24h to H1703 Control (Ctrl)-sh and Nrf2-sh sub-lines prior to lh treatment of CDDP (2.5 μg/m1)/CBP501 (1 μM). (FIG. 4C) Whole cell cycle distribution. (FIG. 4D) G2-M phase. An asterisk indicates statistical significance (TTEST; p<0.005). Error bars signify standard deviations as determined from four flowcytometric analyses.
Cell cycle analysis. Cells were plated in 24-well plates and incubated for 24 hours. The cells were treated with or without CDDP plus or minus CBP501 at the indicated concentration for the indicated times. The cells were harvested and stained with Krishan's solution (0.1% sodium citrate, 50 μg/ml propidium iodide, 20 μg/ml RNase A, 0.5% NP-40). Stained cells were analyzed by FACSCalibur (Becton Dickinson, Franklin Lakes, N.J.) using CELLQuest software (Becton Dickinson).
Lentivirus infection. Nrf2 shRNA lentivirus particles and Control shRNA lentivirus particles were purchased from SantaCruz. Lentivirus infection was performed according to manufacturer's instructions. Cells (50% confluence) were treated with 5 μg/ml Polybrene (SantaCruz) prior to virus infection. One day after addition of virus, the cells were transferred to fresh medium and cells were selected by treatment with Puromycin (SantaCruz). […]

For the molecule `C[S+]([O-])CCCCN=C=S` (stereo not shown) [SFN, Sulforaphane], the Nrf2 protein levels result was “did not cause a similar increase” in assay [1] (H1703 cells transfected with Nrf2 shRNA) and “increase in a dose dependent manner” in assay [1] (H1703 cells transfected with control shRNA). Also, the “Effect of SFN on CBP501's effect (cell cycle distribution, G2-M)” value in assay [2] (H1703 Nrf2 knock-down) is listed as “the effect of SFN was abrogated”; in assay [2] (H1703 control shRNA) it was “attenuated CBP501's effect; also recorded: cancels the effect of CBP501”.
